Test results from US9427402B2, “Preparation for improving solubility of poorly soluble drug” (Shionogi & Co. Ltd., priority 2010, dated 2016).
≈ marks a conversion by molar mass, not a printed value. Where two headings read alike, the source gives them in different places.

Assay: Solubility evaluation of drugs (buffer solutions, 37° C., HPLC)
Assay type: physicochemical
Conditions: for solubility in words: acidic / neutral solvents, conclusion from Table 1; for solubility at 3 h: thermodynamic from solid
Procedure: A solvent was added to a drug, and ultrasonic irradiation treatment was performed on the resulting solution. The solution was agitated for 3 hours at 37° C. After 3 hours, the sample was filtered with a 0.45 μm filter, and the concentration of the drug in the filtrate was measured by a HPLC method. The solvents used were 100 mM of a citrate buffer solution (pH 4), 100 mM of a phosphate buffer (pH 7) and 100 mM of carbonic acid buffer solution (pH 9).

[1] = aqueous buffer, 100 mM citrate buffer solution (pH 4), 37° C., 3 hours, read-out: Solubility pH 4
[2] = aqueous buffer, 100 mM phosphate buffer (pH 7), 37° C., 3 hours, read-out: Solubility pH 7

Row | Compound | solubility in words | solubility at 3 h (aqueous buffer, 100 mM carbonic acid buffer solution (pH 9), 37° C., 3 hours, read-out: Solubility pH 9) [µg/mL] | solubility at 3 h [1] [µg/mL] | solubility at 3 h [2] [µg/mL] | solubility at 3 h (buffer solution, 37 °C, pH 7, aqueous buffer, solvent with a pH of 7 or less, read-out: solubility in a solvent with a pH of 7 or less) [µg/mL]
1 | CCCCCCO[C@@H](C)c1cccc(-c2csc(NC(=O)c3cc(Cl)c(/C=C(\C)C(=O)O)c(Cl)c3)n2)c1OC [Compound C-3B, (S)-(E)-3-(2,6-dichloro-4-{4-[3-(1-hexyloxyethyl)-2-methyloxyphenyl]thiazole 2-ylcarbamoyl}phenyl)-2-methylacrylic acid] | poorly soluble in an acidic and a neutral solvents | 7.7 (≈ 13 µM) | ≤ 0.0004 | ≤ 0.0004 | ≤ 0.0004
2 | COc1ccc2c(c1)c(CC(=O)O)c(C)n2C(=O)c1ccc(Cl)cc1 [Indomethacin, indomethacin, reference compound] | poorly soluble in an acidic solvent |  | 0.5 (≈ 1.4 µM) | 25 (≈ 69.9 µM) | 
